Results on 82 compounds are retold here after PubChem BioAssay AID1199 (EPA DSSTox, 2008).

This series concerns mouse carcinogenicity bioassay, TD50 from CPDB. In words: DSSTox (CPDBAS) Carcinogenic Potency Database Summary Mouse Bioassay Results. An outline of the steps: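 Chronic long-term mouse cancer bioassays from literature and NCI/NTP, compiled per sex. TD50 is the standardized carcinogenic potency, using the most positive experiment per sex-species; target sites follow author opinion.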

Setting [1] is: TD50_Mouse_Note: no positive results.
[2] abbreviates: TD50_Mouse_Note: no positive results, TargetSites_Mouse_Female: no positive results.
[3] abbreviates: TargetSites_Mouse_Female: no positive results.
Setting [4] is: TD50_Mouse_Note: TD50 is harmonic mean of more than one positive test, TargetSites_Mouse_Female: liver.

Each structure is given as a SMILES string. The source made the active and inactive calls.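 How the source made its calls: active means a tumour-causing dose and a tumour site recorded for mice in at least one sex group; inconclusive means only government mouse studies exist and were judged inadequate; inactive means mouse studies exist but none gave tumours.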

Regarding `[Se]`, under setting [1], the result was inactive.
Regarding `Nc1ccc(Cl)cc1`, the outcome under setting [2] is “inactive; no positive results”. Moreover, the Potency under setting [3] was 0.546 mmol/kg/day.
For `COc1ccc(OC)c(/C=C/c2ccc(N)cc2)c1`, the Potency under setting [3] is 0.376 mmol/kg/day.
With `NNC(N)=S`, the outcome under setting [2] was “inactive; no positive results”.
Still for that read-out and setting: with `NC(=S)Nc1cccc2ccccc12` the entry was “inactive; no positive results”; with `OC[C@H]1O[C@@H]2O[C@H]3[C@H](O)[C@@H](O)[C@@H](O[C@H]4[C@H](O)[C@@H](O)[C@@H](O[C@H]5[C@H](O)[C@@H](O)[C@@H](O[C@H]6[C@H](O)[C@@H](O)[C@@H](O[C@H]7[C@H](O)[C@@H](O)[C@@H](O[C@H]8[C@H](O)[C@@H](O)[C@@H](O[C@H]1[C@H](O)[C@H]2O)O[C@@H]8CO)O[C@@H]7CO)O[C@@H]6CO)O[C@@H]5CO)O[C@@H]4CO)O[C@@H]3CO`, “inactive; no positive results”.
Same read-out and setting: the result for `Nc1ccc(N)c(Cl)c1` reads “inactive; no positive results”.
For `O.O.O.O.O.O.O.O=S(=O)([O-])[O-].[Co+2]`, the Potency (TD50_Mouse_Note: TD50 is harmonic mean of more than one positive test, TargetSites_Mouse_Female: lung) was 0.00269 mmol/kg/day.
On to `CC(Oc1cc(Cl)ccc1Cl)C(=O)O` (centres undefined), for which the outcome under setting [2] is “inactive; no positive results”.
Still for that read-out and setting: the result for `O=[N+]([O-])c1cc([N+](=O)[O-])c(Cl)c(Cl)c1Cl` reads “inactive; no positive results”.
As to `CCn1nc(C)c2c1C(c1ccccc1)=NCC(=O)N2`, the Potency under setting [4] was 0.425 mmol/kg/day.
Take `CCN(CC)C(=S)S`: the outcome under setting [2] is “inactive; no positive results”.
Still for that read-out and setting: with `CC(Oc1ccc(Cl)cc1Cl)C(=O)O` (centres undefined) the entry was “inactive; no positive results”.
With `O=P(OCC(Br)CBr)(OCC(Br)CBr)OCC(Br)CBr` (centres undefined), the Potency (TD50_Mouse_Note: TD50 is harmonic mean of more than one positive test, TargetSites_Mouse_Female: liver, lung, stomach) is 0.183 mmol/kg/day.
For the compound `Brc1c(Br)c(Br)c(Oc2c(Br)c(Br)c(Br)c(Br)c2Br)c(Br)c1Br`, under setting [2], the outcome was “inactive; no positive results”.
Turning to `Clc1c(Cl)c(Cl)c(Cl)c(Cl)c1Cl`, under setting [4], the Potency is 0.229 mmol/kg/day.
On to `CCC1CO1` (centres undefined), for which the outcome under setting [2] is “inactive; no positive results”.
On to `CC1CO1` (centres undefined), for which the Potency (TD50_Mouse_Note: TD50 is harmonic mean of more than one positive test, TargetSites_Mouse_Female: nasal cavity) was 15.7 mmol/kg/day.
Turning to `Clc1cc2c(cc1Cl)Oc1cc(Cl)c(Cl)cc1O2`, under “TD50_Mouse_Note: TD50 is harmonic mean of more than one positive test, TargetSites_Mouse_Female: liver, thyroid gland”, the Potency was 4.85e-07 mmol/kg/day.
With `O=C(O)Cc1cccc2ccccc12`, the outcome under setting [2] is “inactive; no positive results”.
Same read-out and setting: the result for `Oc1ccc(Cl)cc1Cl` reads “inactive; no positive results”.
The same measure, in the same setting: with `Cc1ccc2c(-c3ccccc3)nc(=O)n(C(C)C)c2c1` the entry was “inactive; no positive results”.
On the same count and under the same terms, the result for `Nc1ccc(N)cc1` reads “inactive; no positive results”.
Regarding `CCN(CC)CCOc1ccc(/C(=C(\Cl)c2ccccc2)c2ccccc2)cc1`, under setting [2], the outcome was inactive.
Take `Cc1ccccc1[N+](=O)[O-]`: the Potency (TD50_Mouse_Note: TD50 is harmonic mean of more than one positive test, TargetSites_Mouse_Female: large intestine, liver, vascular system) was 0.933 mmol/kg/day.
Regarding `CC(C)Oc1ccc(Nc2ccccc2)cc1`, the outcome under setting [2] is “inactive; no positive results”.
Same read-out and setting: the result for `CNC(=O)O/N=C/C(C)(C)SC` reads “inactive; no positive results”.
Take `O=S1(=O)OCCO1`: under setting [2], the outcome was inactive.
Take `O.O=S(=O)([O-])[O-].[Mn+2]`: the outcome under setting [2] was “inactive; no positive results”.
As for `CC/C(C)=N/O`, the Potency under setting [3] was 6.13 mmol/kg/day.
For `CC(C)=CCl`, the Potency (TD50_Mouse_Note: TD50 is harmonic mean of more than one positive test, TargetSites_Mouse_Female: stomach) was 0.165 mmol/kg/day.
Take `c1ccc(-c2ccccc2)cc1`: the outcome under setting [2] is “inactive; no positive results”.
The same measure, in the same setting: the result for `O=C1c2ccccc2C(=O)c2ccccc21` reads “inactive; no positive results”; that for `CC(=O)C(N=Nc1ccc(-c2ccc(N=NC(C(C)=O)C(=O)Nc3ccccc3)c(Cl)c2)cc1Cl)C(=O)Nc1ccccc1` (centres undefined), “inactive; no positive results”.
For `C=CCl`, the Potency (TD50_Mouse_Note: TD50 is harmonic mean of more than one positive test, TargetSites_Mouse_Female: lung, mammary gland, vascular system) is 0.349 mmol/kg/day.
`Nc1ccc2c(n1)[nH]c1ccccc12`: under “TD50_Mouse_Note: TD50 is harmonic mean of more than one positive test, TargetSites_Mouse_Female: liver, vascular system”, the Potency is 0.272 mmol/kg/day.
Take `Nc1ccc(-c2ccccc2)cc1`: for the setting “TD50_Mouse_Note: TD50 is harmonic mean of more than one positive test, TargetSites_Mouse_Female: liver, urinary bladder”, the Potency is 0.0124 mmol/kg/day.
As to `c1ccc2sc(SNC3CCCCC3)nc2c1`, under setting [2], the outcome is “inactive; no positive results”.
Same read-out and setting: with `Cc1cc(O)c2c(c1)C(=O)c1cc(O)cc(O)c1C2=O` the entry was “inactive; no positive results”; with `CCOP(=S)(OCC)SC1OCCOC1SP(=S)(OCC)OCC` (centres undefined), “inactive; no positive results”.
In the case of `Cn1c(N)nc2ncc(-c3ccccc3)cc21`, the Potency (TD50_Mouse_Note: TD50 is harmonic mean of more than one positive test, TargetSites_Mouse_Female: hematopoietic system) is 0.127 mmol/kg/day.
With `CN(C)c1ccc(C(=N)c2ccc(N(C)C)cc2)cc1`, under setting [4], the Potency was 0.206 mmol/kg/day.
Regarding `O=CCCCC=O`, the outcome under setting [2] was “inactive; no positive results”.
On to `ClCOCC(COCCl)OCCl`, for which, where the note is “TD50_Mouse_Note: positive test results only by intraperitoneal or intravenous injection, TargetSites_Mouse_Female: peritoneal cavity”, the Potency was 0.0145 mmol/kg/day.
For the compound `COc1cc(CNC(=O)CCCC/C=C/C(C)C)ccc1O`, the Potency (TD50_Mouse_Note: TD50 is harmonic mean of more than one positive test, no positive results are statistically significant, TargetSites_Mouse_Female: large intestine) is 0.547 mmol/kg/day.
For the compound `CC(C)(c1ccc(O)cc1)c1ccc(O)cc1`, the outcome under setting [2] was “inactive; no positive results”.
Consider `O.O.O.O.O.O.O.O.O=S(=O)([O-])[O-].O=S(=O)([O-])[O-].O=S(=O)([O-])[O-].[Cd+2].[Cd+2].[Cd+2]`, for which the outcome under setting [1] was “inactive; no positive results”.
In the case of `[O-]/[N+](=N\O)c1ccccc1`, the Potency (TD50_Mouse_Note: TD50 is harmonic mean of more than one positive test, TargetSites_Mouse_Female: ear Zymbals gland, harderian gland, liver, vascular system) was 3.77 mmol/kg/day.
Regarding `O[C@@H]([C@H](O)[C@@H](O)CBr)[C@@H](O)CBr`, the Potency (TD50_Mouse_Note: positive test results only by intraperitoneal or intravenous injection, TD50 is harmonic mean of more than one positive, TargetSites_Mouse_Female: hematopoietic system, lung) is 0.0484 mmol/kg/day.
Take `O=[As]O`: for the setting “TD50_Mouse_Note: no positive results, TargetSites_Mouse_BothSexes: no positive results”, the result was inactive.
With `CCCCN(N)C=O`, the Potency (TD50_Mouse_Note: TD50 is harmonic mean of more than one positive test, TargetSites_Mouse_Female: clitoral gland, lung) is 0.166 mmol/kg/day.
With `C/C1=C\C=C(\C(C)C)[C@@H](O)C/C(C)=C/CC/C(C)=C/CC1`, the outcome under setting [1] was “inactive; no positive results”.
Regarding `CCC(=O)C(CC(C)N(C)C)(c1ccccc1)c1ccccc1` (centres undefined), under setting [2], the outcome is “inactive; no positive results”.
`CCCCCCc1ccc(O)cc1O`: the outcome under setting [2] is “inactive; no positive results”.
The same measure, in the same setting: with `C=C(C)C(=O)OC` the entry was “inactive; no positive results”.
Same read-out and setting: with `O=S(O)S(=O)(=O)O` the entry was “inactive; no positive results”; with `CC1=C(/C=C/C(C)=C/C=C/C(C)=C/C=C/C=C(C)/C=C/C=C(C)/C=C/C2=C(C)CCCC2(C)C)C(C)(C)CCC1`, “inactive; no positive results”.
Turning to `OC(O)C(Cl)(Cl)Cl`, under “TD50_Mouse_Note: TD50 is harmonic mean of more than one positive test, TargetSites_Mouse_Female: no positive results”, the Potency is 0.604 mmol/kg/day.
Take `C=O`: the Potency under setting [3] is 1.46 mmol/kg/day.
As to `OC[C@@H](O)[C@@H](O)[C@H](O)[C@H](O)CO[C@H]1O[C@H](CO)[C@@H](O)[C@H](O)[C@H]1O`, the outcome under setting [2] was “inactive; no positive results”.
Same read-out and setting: with `CCNC(=S)NCC` the entry was “inactive; no positive results”.
`C=CCOCC1CO1` (centres undefined): the Potency under setting [3] was 1.59 mmol/kg/day.
For the compound `O=[N+]([O-])c1ccc(Cl)c([N+](=O)[O-])c1`, the outcome under setting [2] is “inactive; no positive results”.
The same measure, in the same setting: the result for `Cn1cc(C(=O)[C@@H]2CCc3nc[nH]c3C2)c2ccccc21` reads “inactive; no positive results”.
`Cc1cc(C)c(N)cc1C`: the Potency was 0.265 mmol/kg/day (TD50_Mouse_Note: TD50 is harmonic mean of more than one positive test, TargetSites_Mouse_Female: liver, lung) and 0.0453 mmol/kg/day (TargetSites_Mouse_Female: liver).
On to `CCCCN(CC)C(=O)SCCC`, for which, under setting [2], the outcome was “inactive; no positive results”.
As to `CC(C)(Oc1ccc(C2CC2(Cl)Cl)cc1)C(=O)O` (centres undefined), the Potency (TD50_Mouse_Note: TD50 is harmonic mean of more than one positive test) is 0.0214 mmol/kg/day.
`O`: under setting [2], the outcome is “inactive; no positive results”.
For the compound `CC(=O)N(O)c1ccc2c(c1)Cc1ccccc1-2`, for the setting “TargetSites_Mouse_Female: esophagus, kidney, liver, stomach, urinary bladder”, the Potency was 0.026 mmol/kg/day.
On to `CCc1nc(N)nc(N)c1-c1ccc(Cl)cc1`, for which the outcome under setting [2] was “inactive; ntp bioassay inadequate”.
Same read-out and setting: the result for `CN(C)c1ccccc1` reads “inactive; no positive results”; that for `CCN(CC)C(=S)[S-].CCN(CC)C(=S)[S-].[Cd+2]`, “inactive; no positive results”.
As for `CCOc1ccc(NC(=O)CC(C)O)cc1` (centres undefined), under “TD50_Mouse_Note: TD50_Mouse_mmol was not calculated for this mixture, but Activiity Score is assigned value of 50 to indicate active, TargetSites_Mouse_Female: no positive results”, the outcome was “active; kidney”.
Consider `ClC(Cl)Cl`, for which the Potency (TD50_Mouse_Note: TD50 is harmonic mean of more than one positive test, greater than ten-fold variation among TD50 values for positive res, TargetSites_Mouse_Female: liver) is 0.93 mmol/kg/day.
In the case of `ClCCCl`, the Potency (TD50_Mouse_Note: TD50 is harmonic mean of more than one positive test, TargetSites_Mouse_Female: liver, lung, mammary gland, uterus) is 1.39 mmol/kg/day.
With `O=C1CN(/N=C/c2ccc([N+](=O)[O-])o2)C(=O)N1`, where the note is “TargetSites_Mouse_Female: ovary”, the Potency is 5.88 mmol/kg/day.
With `CCCCN(CCCC)C(=S)[S-].CCCCN(CCCC)C(=S)[S-].[Zn+2]`, the outcome under setting [2] was “inactive; no positive results”.
As for `Cc1cccc(N)c1`, the Potency (TD50_Mouse_Note: no positive results are statistically significant, TargetSites_Mouse_Female: no positive results) is 10 mmol/kg/day.
For the compound `Cn1c(=O)c2c(ncn2C)n(C)c1=O`, the outcome under setting [2] was “inactive; no positive results”.
On to `OCc1ccco1`, for which the Potency under setting [3] was 2.68 mmol/kg/day.
Same read-out and setting: with `CC(N)=O` the figure was 51 mmol/kg/day.
With `CCOC(=O)[C@]1(c2ccccc2)CCC=C[C@H]1N(C)C`, the outcome under setting [2] is “inactive; no positive results”.
